Reference: patent US9416162B2, “Peptides having reduced toxicity that stimulate cholesterol efflux” (The Regents of the University of California, priority 2013, dated 2016)
Non-standard residues stand in square brackets, D forms with d. No end group written: not given here. Cit = NC(=O)NCCC[C@H](N)C(=O)O

How the values were obtained:
ABCA1 = target: T1, ABCA1 (Mus musculus, UniProt P41233); test: ABCA1 protein stabilization, western blot of J774 whole-cell lysates; format: cell-based; details: J774 cells after cAMP treatment, continued presence of peptide
T1 construct: treated (18 h) with a cAMP analog to induce ABCA1 protein expression; endogenous in cells; host or cells: J774 macrophages
Protocol: In some embodiments, the stabilization of ABCA is measured by direct measurement of ABCA (e.g., ABCA protein, or nucleic acid) using a cell based assay. Cell based assays can be performed in any cells in which ABCA is expressed (e.g., J774 macrophages), including cells which have been transfected with ABCA (e.g. HeLa cells). Any cell type can be used. For example, J774 macrophages can be used to assess relative ABCA1 protein levels in the presence and absence of polypeptides of the invention. The cells are first contacted with a compound that will induce ABCA (e.g., cAMP or a cAMP analogue such as, 8-bromo-cAMP) to upregulate ABCA (e.g., ABCA1) expression, then exposed to […] polypeptides of the invention in the absence of the cAMP stimulus to evaluate whether ABCA1 protein was stabilized or degraded. Relative levels of ABCA1 protein can be assessed using any means known in the art including, e.g., immunoblot analysis of cell membranes (Oram et al., J. Biol. Chem., 278:52379-52385 (2003)) or hybridization of nucleic acid probes to ABCA mRNA.
J774 macrophages were used for experiments. Panel A—Cells were labeled (48 h) with 3H cholesterol and treated with (right bars) and without (left bars) a cAMP analog to modulate ABCA1 expression. […]

SR-B1 = target: T2, SR-B1 (Rattus norvegicus, UniProt P97943); test: SR-B1 mediated cholesterol efflux from Fu5AH cells; format: cell-based; details: 50 μg peptide/ml serum-free medium
T2 construct: endogenous in cells; host or cells: Fu5AH cells
T2 sequence (P97943 1-509): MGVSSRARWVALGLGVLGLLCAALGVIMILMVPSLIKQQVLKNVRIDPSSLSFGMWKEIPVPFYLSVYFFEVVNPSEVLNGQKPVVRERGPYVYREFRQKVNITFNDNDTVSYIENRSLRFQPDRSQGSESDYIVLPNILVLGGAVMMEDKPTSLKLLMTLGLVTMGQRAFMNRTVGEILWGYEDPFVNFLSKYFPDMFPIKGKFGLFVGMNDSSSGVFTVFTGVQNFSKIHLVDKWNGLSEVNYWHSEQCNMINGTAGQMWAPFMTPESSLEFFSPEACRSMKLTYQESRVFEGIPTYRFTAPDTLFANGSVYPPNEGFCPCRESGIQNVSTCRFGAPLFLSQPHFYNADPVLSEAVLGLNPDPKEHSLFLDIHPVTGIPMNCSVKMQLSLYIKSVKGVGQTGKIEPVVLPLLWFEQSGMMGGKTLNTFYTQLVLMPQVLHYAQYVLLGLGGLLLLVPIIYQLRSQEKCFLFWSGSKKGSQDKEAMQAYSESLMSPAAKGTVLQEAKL
Protocol: To further evaluate potential anti-atherogenic mechanisms of CS6253, Fu5AH cells labeled with [3H]cholesterol were used in efflux experiments. The citrulline form of LeuATI-5261 (CS6253) lipidated with POPC was used as a cholesterol efflux acceptor at 50 μg peptide/ml serum-free medium. Panel A-Time-course for SR-B1 mediated cholesterol efflux from cells. […] Panel B—Comparison between CS6253 and ATI-5261 in mediating cellular cholesterol efflux via SRB1. [3H]cholesterol labeled Fu5AH cells were incubated with either lipid-free acceptors or acceptors formulated with POPC.

apoE−/− mice = test: Macrophage reverse cholesterol transport (RCT) to feces in vivo; design: species or system mouse; details: male apoE−/− mice, IP lipid-free peptide 10 or 30 mg/kg
Protocol: J774 macrophage foam-cells (acetylated LDL, 100 μg/ml) labeled with [^3H]cholesterol were injected IP into male, atherosclerotic apoE deficient (apoE^−/−) mice 5 months of age together with vehicle alone (PBS) or with lipid-free CS6253 peptide at doses of 10 or 30 mg/kg. Feces were collected at 24 h for assessment of [^3H]sterol. Values are means±SD, n=5 mice per group.

hamsters = test: Lipoprotein profile in hamsters after sc injection (ion mobility, 2D gel); format: in vivo, hamster
Protocol: This example employed peptide T5237-4 EVCit[…]it[…] (SEQ ID NO:2) (Cit=citrulline). […] Following removal of albumin by centrifugations plasma was injected and lipoproteins separated with gas-phase differential electrophoretic macromolecular mobility-based method (ion mobility, or IM) (Caulfield et al. Clin Chem 2008 54:8 1307-16). […] The panel in the upper right hand corner is derived from a 2D gel separation (size and charge separation).

[1] = hamsters, 10, 30 and 100 mg/kg sc, plasma 4 h, dose-response

T1 sequence (P41233 whole entry): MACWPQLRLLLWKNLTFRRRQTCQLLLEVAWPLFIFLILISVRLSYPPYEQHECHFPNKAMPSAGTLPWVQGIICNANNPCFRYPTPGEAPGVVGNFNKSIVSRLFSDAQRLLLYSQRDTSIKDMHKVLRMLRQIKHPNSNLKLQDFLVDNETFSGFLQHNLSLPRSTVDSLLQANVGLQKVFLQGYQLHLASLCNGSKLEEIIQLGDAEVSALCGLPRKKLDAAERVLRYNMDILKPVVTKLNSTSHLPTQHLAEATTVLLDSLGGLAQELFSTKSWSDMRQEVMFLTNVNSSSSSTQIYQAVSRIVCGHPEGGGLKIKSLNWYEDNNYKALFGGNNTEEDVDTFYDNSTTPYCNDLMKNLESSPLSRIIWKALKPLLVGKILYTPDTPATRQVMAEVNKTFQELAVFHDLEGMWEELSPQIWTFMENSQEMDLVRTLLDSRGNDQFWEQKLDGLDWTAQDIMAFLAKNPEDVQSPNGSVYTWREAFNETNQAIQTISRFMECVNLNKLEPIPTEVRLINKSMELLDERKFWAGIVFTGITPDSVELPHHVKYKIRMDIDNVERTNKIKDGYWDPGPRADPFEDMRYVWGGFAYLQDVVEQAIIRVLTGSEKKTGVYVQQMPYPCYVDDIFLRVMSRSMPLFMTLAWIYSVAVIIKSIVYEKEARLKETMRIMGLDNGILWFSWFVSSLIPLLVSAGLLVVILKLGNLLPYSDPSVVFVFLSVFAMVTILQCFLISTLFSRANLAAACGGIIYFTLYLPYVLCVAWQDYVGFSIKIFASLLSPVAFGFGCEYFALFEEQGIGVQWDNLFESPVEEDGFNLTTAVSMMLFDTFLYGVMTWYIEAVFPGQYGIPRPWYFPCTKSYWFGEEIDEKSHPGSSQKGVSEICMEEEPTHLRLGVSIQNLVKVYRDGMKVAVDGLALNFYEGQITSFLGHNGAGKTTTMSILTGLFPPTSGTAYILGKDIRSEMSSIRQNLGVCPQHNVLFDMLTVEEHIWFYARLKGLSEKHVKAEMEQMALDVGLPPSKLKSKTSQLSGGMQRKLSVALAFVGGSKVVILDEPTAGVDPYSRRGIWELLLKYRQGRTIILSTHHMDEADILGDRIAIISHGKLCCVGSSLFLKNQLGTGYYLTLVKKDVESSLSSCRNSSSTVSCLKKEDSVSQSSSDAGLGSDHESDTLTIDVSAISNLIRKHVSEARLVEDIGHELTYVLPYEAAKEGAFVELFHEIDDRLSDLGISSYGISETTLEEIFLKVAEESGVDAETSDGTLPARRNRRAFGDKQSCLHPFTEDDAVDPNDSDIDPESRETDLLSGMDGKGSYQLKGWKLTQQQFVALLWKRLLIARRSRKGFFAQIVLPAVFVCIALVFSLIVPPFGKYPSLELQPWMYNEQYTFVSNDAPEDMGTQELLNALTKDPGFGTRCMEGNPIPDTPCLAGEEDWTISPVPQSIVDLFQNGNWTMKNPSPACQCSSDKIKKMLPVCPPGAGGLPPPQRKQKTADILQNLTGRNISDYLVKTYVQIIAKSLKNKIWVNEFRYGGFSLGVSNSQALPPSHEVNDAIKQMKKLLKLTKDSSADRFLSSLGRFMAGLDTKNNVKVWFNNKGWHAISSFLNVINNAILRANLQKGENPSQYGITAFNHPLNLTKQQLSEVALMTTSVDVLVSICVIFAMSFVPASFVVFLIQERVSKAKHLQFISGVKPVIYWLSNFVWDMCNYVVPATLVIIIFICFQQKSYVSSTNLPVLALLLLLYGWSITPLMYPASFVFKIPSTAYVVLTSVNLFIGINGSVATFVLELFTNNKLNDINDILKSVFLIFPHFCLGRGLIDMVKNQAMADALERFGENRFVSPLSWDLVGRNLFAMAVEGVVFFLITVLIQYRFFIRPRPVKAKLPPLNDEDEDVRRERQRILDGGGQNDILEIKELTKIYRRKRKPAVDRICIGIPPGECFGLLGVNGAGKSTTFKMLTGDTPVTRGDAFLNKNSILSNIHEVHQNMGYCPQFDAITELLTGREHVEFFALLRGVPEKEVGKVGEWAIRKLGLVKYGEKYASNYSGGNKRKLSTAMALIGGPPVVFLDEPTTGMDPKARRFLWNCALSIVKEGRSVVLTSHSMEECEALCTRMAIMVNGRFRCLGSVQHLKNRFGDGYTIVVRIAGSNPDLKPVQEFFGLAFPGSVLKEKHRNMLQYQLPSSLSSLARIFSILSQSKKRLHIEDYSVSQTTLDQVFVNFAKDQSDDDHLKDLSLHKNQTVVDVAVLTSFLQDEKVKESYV

## EVCitSKLEEWLAALCitELAEELLARLKS (SEQ ID NO:2) (EV[Cit]SKLEEWLAAL[Cit]ELAEELLARLKS) [CS6253, citrulline form of LeuATI-5261, R3,14→Citrulline, 26-mer]
ABCA1
  ABCA1 protein levels (stabilization): maintained at high levels
SR-B1
  SR-B1 mediated cholesterol efflux: relatively poor activity
apoE−/− mice
  macrophage RCT, [3H]sterol in feces at 24 h: stimulated macrophage RCT
hamsters; hamsters, 100 mg/kg sc, 1 h, 2 h, and 4 h
  preβ-HDL (2D gel, apoA-I antibody): preβ-HDL increase
hamsters; [1]
  LDL: LDL lowering
  small HDL: small HDL increase
